Laboratory results: publication PMC9748837 (Chemico-Biological Interactions, 2021)

Columns and labels:
[1] = target: T1, OATP2B1 (Homo sapiens, UniProt O94956); type: cell-based
T1 sequence (O94956 1-709): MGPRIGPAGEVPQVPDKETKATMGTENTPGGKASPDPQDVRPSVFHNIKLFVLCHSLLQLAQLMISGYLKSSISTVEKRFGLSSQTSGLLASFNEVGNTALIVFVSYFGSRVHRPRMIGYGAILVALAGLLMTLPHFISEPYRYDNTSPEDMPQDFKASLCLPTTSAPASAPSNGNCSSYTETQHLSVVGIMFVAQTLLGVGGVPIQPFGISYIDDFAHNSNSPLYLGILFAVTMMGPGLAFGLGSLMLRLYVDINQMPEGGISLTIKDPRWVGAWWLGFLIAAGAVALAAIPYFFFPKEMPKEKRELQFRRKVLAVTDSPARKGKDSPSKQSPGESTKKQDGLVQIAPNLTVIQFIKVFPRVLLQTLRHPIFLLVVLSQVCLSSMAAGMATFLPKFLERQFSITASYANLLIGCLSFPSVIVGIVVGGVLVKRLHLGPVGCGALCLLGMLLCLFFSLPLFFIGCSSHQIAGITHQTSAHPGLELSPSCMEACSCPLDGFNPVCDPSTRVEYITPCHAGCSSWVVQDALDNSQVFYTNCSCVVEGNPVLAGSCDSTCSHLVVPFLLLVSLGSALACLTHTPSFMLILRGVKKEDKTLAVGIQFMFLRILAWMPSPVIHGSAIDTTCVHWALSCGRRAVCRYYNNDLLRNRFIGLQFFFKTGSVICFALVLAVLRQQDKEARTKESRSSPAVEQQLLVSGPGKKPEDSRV

[2] = target: T2, OATP1B1 (Homo sapiens, UniProt Q9Y6L6); type: cell-based; details: hek-oatp1b1 cells
T2 sequence (Q9Y6L6 1-691): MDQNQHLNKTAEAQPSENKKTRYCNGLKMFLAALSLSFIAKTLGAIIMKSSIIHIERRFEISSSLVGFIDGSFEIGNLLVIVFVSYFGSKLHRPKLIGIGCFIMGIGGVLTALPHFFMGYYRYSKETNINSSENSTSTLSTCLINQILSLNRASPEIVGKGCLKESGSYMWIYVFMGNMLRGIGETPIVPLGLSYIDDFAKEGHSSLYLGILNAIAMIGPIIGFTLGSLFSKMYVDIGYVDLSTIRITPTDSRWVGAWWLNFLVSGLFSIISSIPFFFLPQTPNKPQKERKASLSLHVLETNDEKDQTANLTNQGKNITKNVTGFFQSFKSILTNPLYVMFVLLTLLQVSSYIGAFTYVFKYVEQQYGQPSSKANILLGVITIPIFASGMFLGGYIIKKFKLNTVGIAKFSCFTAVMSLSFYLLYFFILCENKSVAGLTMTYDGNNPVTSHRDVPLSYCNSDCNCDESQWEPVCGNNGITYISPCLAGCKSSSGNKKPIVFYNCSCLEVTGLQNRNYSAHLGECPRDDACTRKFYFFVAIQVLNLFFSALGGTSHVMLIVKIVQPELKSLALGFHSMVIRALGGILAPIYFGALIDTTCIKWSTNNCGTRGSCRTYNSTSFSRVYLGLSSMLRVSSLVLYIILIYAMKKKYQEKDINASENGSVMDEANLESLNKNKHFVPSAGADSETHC

IC50 [1]: 11.1 ± 3.3 µM | inhibition at 100 µM [2]: ~50%
SMILES: N=C(N)Nc1ccc(C(=O)Oc2ccc(CC(=O)O)cc2)cc1 [GBPA, 4-(4-guanidinobenzoyloxy)phenylacetic acid]
